Reference: ChEMBL document CHEMBL4321815, “Discovery of an Extremely Potent Thiazine-Based β-Secretase Inhibitor with Reduced Cardiovascular and Liver Toxicity at a Low Projected Human Dose” (J Med Chem, 2019)

What was measured:
Cathepsin D = Cathepsin D (Homo sapiens, UniProt P07339); test: Inhibition of Cathepsin D (unknown origin)
Beta-secretase 2 = molecular target: T1, Beta-secretase 2 (Homo sapiens, UniProt Q9Y5Z0); test: Inhibition of BACE2 (unknown origin) by HTRF assay
T1 sequence (Q9Y5Z0 whole entry): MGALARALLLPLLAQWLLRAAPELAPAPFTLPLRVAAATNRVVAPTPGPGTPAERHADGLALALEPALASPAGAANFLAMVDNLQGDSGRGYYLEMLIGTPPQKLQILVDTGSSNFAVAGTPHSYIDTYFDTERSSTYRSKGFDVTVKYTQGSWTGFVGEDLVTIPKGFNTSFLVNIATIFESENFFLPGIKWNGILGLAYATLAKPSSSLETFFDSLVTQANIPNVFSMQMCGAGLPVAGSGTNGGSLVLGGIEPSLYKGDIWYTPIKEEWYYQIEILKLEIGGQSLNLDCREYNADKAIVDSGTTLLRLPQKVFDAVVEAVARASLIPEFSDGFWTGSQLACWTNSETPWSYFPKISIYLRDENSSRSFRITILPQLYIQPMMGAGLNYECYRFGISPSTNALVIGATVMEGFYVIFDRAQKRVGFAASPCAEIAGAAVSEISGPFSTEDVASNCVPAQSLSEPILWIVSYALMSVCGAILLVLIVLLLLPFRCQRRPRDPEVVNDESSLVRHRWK

[1] = Metabolic stability in human hepatocytes at 2 uM incubated for 2 hr; assay type: ADME, cell-based, Hepatocyte; settings: read-out: Stability
[2] = Metabolic stability in dog hepatocytes at 2 uM incubated for 2 hr; assay type: ADME, cell-based, Canis lupus familiaris, Hepatocyte; settings: read-out: Stability
[3] = Metabolic stability in rat hepatocytes at 2 uM incubated for 2 hr; assay type: ADME, cell-based, Hepatocyte; settings: read-out: Stability
[4] = Metabolic stability in mouse hepatocytes at 2 uM incubated for 2 hr; assay type: ADME, cell-based, Hepatocyte; settings: read-out: Stability
[5] = Metabolic stability in cynomolgus monkey hepatocytes at 2 uM incubated for 2 hr; assay type: ADME, cell-based, Macaca fascicularis, Hepatocyte; settings: read-out: Stability
[6] = Fraction unbound in human plasma after 24 hrs by equilibrium dialysis based LC-MS/MS analysis; assay type: ADME, cell-free
[7] = Fraction unbound in rat plasma after 24 hrs by equilibrium dialysis based LC-MS/MS analysis; assay type: ADME, cell-free
[8] = Fraction unbound in mouse plasma after 24 hrs by equilibrium dialysis based LC-MS/MS analysis; assay type: ADME, cell-free
[9] = Fraction unbound in dog plasma after 24 hrs by equilibrium dialysis based LC-MS/MS analysis; assay type: ADME, cell-free, Canis lupus familiaris
[10] = Fraction unbound in monkey plasma after 24 hrs by equilibrium dialysis based LC-MS/MS analysis; assay type: ADME, cell-free, Macaca mulatta; settings: rhesus monkey
[11] = Fraction unbound in mouse brain at 5 uM incubated for 5 hrs by HPLC-MS/MS analysis; assay type: ADME, tissue-based
[12] = Clearance in Sprague-Dawley rat at 0.5 mg/kg, iv by LC/MS/MS analysis; assay type: ADME, organism-based; settings: in vivo
[13] = Cmax in Sprague-Dawley rat at 1 mg/kg, po by LC/MS/MS analysis; assay type: ADME, organism-based; design: dose 1 mg/kg, route oral; settings: in vivo
[14] = Oral bioavailability in Sprague-Dawley rat at 1 mg/kg by LC/MS/MS analysis; assay type: ADME, organism-based; settings: in vivo
[15] = Unbound brain-to-plasma concentration ratio in Sprague-Dawley rat at 0.5 mg/kg, iv after 30 mins by LC-MS/MS analysis; assay type: ADME, organism-based; settings: brain and plasma, read-out: K(p,uu,brain)
Mus musculus [16] = test: In vivo inhibition of BACE1 in po dosed Crl:CD1(ICR) mouse assessed as reduction in amyloidbeta level in brain after 2 to 6 hrs by ELISA; assay type: functional, organism-based
Mus musculus [17] = test: In vivo inhibition of BACE1 in Crl:CD1(ICR) mouse assessed as reduction in amyloidbeta level in brain at 3 mg/kg, po after 2 to 6 hrs by ELISA relative to control; assay type: functional
Mus musculus [18] = test: In vivo inhibition of BACE1 in Crl:CD1(ICR) mouse assessed as reduction in amyloidbeta level in brain at 1 mg/kg, po after 2 to 6 hrs by ELISA relative to control; assay type: functional
[19] = Drug level in Crl:CD1(ICR) mouse brain at 1 mg/kg, po after 2 to 6 hrs; assay type: ADME, organism-based; settings: in vivo, read-out: Drug uptake
[20] = Free drug level in Crl:CD1(ICR) mouse brain at 1 mg/kg, po after 2 to 6 hrs; assay type: ADME, organism-based; settings: in vivo
[21] = Drug level in Crl:CD1(ICR) mouse brain at 3 mg/kg, po at 6 hrs; assay type: ADME, organism-based; settings: read-out: Drug uptake
[22] = Free drug level in Crl:CD1(ICR) mouse brain at 3 mg/kg, po at 6 hrs; assay type: ADME, organism-based; settings: in vivo
Canis familiaris [23] = test: In vivo inhibition of BACE1 in po dosed Beagle dog assessed as reduction in amyloidbeta42 level in CSF measured after 4 to 49 hrs; assay type: functional, organism-based; settings: Canis lupus familiaris
Canis familiaris [24] = test: In vivo inhibition of BACE1 in Beagle dog assessed as reduction in amyloidbeta42 level in CSF at 1.25 mg/kg, po administered as single dose measured after 4 to 49 hrs relative to control; assay type: functional; settings: Canis lupus familiaris
Canis familiaris [25] = test: In vivo inhibition of BACE1 in Beagle dog assessed as reduction in amyloidbeta42 level in CSF at 0.08 mg/kg, po administered as single dose measured after 4 to 49 hrs relative to control; assay type: functional; settings: Canis lupus familiaris
[26] = Unbound CSF to plasma concentration ratio in Beagle dog at 0.08 to […], po measured up to 49 hrs; assay type: ADME, organism-based, Canis lupus familiaris; settings: CSF and plasma
Canis familiaris [27] = test: In vivo inhibition of BACE1 in po dosed Beagle dog assessed as plasma level causing 50% reduction in amyloidbeta42 level in CSF administered as single dose measured after 4 to 49 hrs; assay type: functional, organism-based; settings: Canis lupus familiaris
Canis familiaris [28] = test: In vivo inhibition of BACE1 in po dosed Beagle dog assessed as plasma level causing 80% reduction in amyloidbeta42 level in CSF administered as single dose measured after 4 to 49 hrs; assay type: functional, Canis lupus familiaris
[29] = Clearance in mouse at 0.5 mg/kg, iv; assay type: ADME, organism-based; settings: in vivo
[30] = Volume of distribution at steady state in mouse at 0.5 mg/kg, iv; assay type: ADME, organism-based; settings: in vivo, read-out: Vdss
[31] = Half life in mouse at 0.5 mg/kg, iv; assay type: ADME, organism-based; settings: in vivo

Sequence of Cathepsin D (P07339 65-162 limits assumed): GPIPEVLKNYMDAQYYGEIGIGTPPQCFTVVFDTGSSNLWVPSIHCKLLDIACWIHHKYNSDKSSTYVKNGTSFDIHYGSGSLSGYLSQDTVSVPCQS
Sequence of Cathepsin D (P07339 169-412 limits assumed): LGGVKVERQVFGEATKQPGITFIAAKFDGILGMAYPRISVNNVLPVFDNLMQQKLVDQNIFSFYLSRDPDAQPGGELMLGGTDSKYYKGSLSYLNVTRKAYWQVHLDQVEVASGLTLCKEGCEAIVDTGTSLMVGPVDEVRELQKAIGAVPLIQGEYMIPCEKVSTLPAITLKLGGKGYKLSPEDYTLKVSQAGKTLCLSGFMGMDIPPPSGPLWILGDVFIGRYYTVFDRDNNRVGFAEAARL

For `C[C@H]1SC(N)=N[C@](C)(c2cc(NC(=O)c3cnc(OCF)cn3)ccc2F)[C@H]1F`, the IC50 (Cathepsin D) was no less than 100000 nM, the IC50 (Beta-secretase 2) was 7.1 nM and the remaining at 2 h, 2 µM [1] was 89%. It also gave a remaining at 2 h, 2 µM [2] of 90%, a remaining at 2 h, 2 µM [3] of 74% and a remaining at 2 h, 2 µM [4] of 71%. For the same compound, the remaining at 2 h, 2 µM [5] was 55%, the fraction unbound at 24 h [6] was 0.083 and the fraction unbound at 24 h [7] was 0.12. For the same compound, the fraction unbound at 24 h [8] was 0.15, the fraction unbound at 24 h [9] was 0.078 and the fraction unbound at 24 h [10] was 0.12. The fraction unbound at 5 h, 5 µM [11] was 0.034, the clearance [12] was 24.8 to 27 mL/min/kg and the Cmax [13] was 38.4 ng/mL. The bioavailability [14] was 31%, the Kp uu at 0.5 h [15] was 0.95 and the inhibition (Mus musculus [16]) was “Dose-dependent effect”. The inhibition in vivo at 3 mg/kg (Mus musculus [17]) was 90%, the inhibition in vivo at 1 mg/kg (Mus musculus [18]) was 55% and the concentration [19] was 87 nM. For the same compound, the “Drug uptake(free)” value [20] was 3 nM, the concentration at 6 h [21] was 611 nM and the “Drug uptake(free)” value [22] was 73 nM. For the same compound, the inhibition (Canis familiaris [23]) was “Dose-dependent effect”, the inhibition in vivo at 1.25 mg/kg (Canis familiaris [24]) was 80% and the inhibition in vivo at 0.08 mg/kg (Canis familiaris [25]) was 50%. It also gave a Kp uu at 49 h [26] of 0.77, an EC50 (Canis familiaris [27]) of 21 nM and an EC80 (Canis familiaris [28]) of 100 nM. The clearance [29] was 41 mL/min/kg, the Vd [30] was 7.5 L/kg and the half-life [31] was 3.2 h.
